Assay: mn = molality of the nth substance listed, in mol/kg
Conditions: 101.3 kPa, Liquid

O=C[C@H](O)[C@@H](O)[C@H](O)CO [D-xylose] + O
mass density [kg/m3]
Conditions	m1 = 0.25	m1 = 0.4	m1 = 0.55	m1 = 0.7	m1 = 0.85	m1 = 1
278.15 K	1013.81	1021.78	1029.49	1036.97	1044.24	1051.27
288.15 K	1012.76	1020.47	1028.02	1035.37	1042.46	1049.35
298.15 K	1010.39	1018.06	1025.49	1032.72	1039.74	1046.52
308.15 K	1007.15	1014.77	1022.12	1029.24	1036.18	1042.87
318.15 K	1003.29	1010.79	1018.05	1025.13	1031.95	1038.63
